# Measurements reported in patent US20230139922A1, “BACITRACIN-ALGINATE OLIGOMER CONJUGATES” (AlgiPharma AS, priority 2016, published 2023).
# Like-named read-outs stand apart in the source and are kept apart here. Where a SMILES comes first, the peptide text is derived from it. Bridges are numbered along the chain shown (N, C = ends). [ ]: non-standard residue; d: D form. The star is where a group is joined. Ileψ(thiazoline)Cys = CC[C@H](C)[C@H](N)C1=N[C@H](C(=O)*)CS1; dOrn = NCCC[C@@H](N)C(=O)O
# Key:
# Type in all cases: cell-based
# Acinetobacter baumannii = test system: Acinetobacter baumannii
# Experimental: (§1) The strains used for susceptibility testing include both culture collection strains and clinical isolates are recited below. Their known relevant genotypes and origin have been described by Khan et al. supra.
# (§2) The MICs of alginate oligomers, bacitracin and alginate oligomer conjugates thereof were determined for isolates V2, V3, VS, V19, E68 and E75 using the broth microdilution method in accordance with standard guidelines (CLSI 2012). Test organisms were suspended in Mueller Hinton cation adjusted (MH) broth (100 μL, 1-5×10^4 CFU/mL) and incubated in 96-well microtitre plates in serial two-fold dilutions of the test compounds. The MIC was defined as the lowest concentration of test compound that produced no visible growth after 16-20 hours.
# Escherichia coli = test system: Escherichia coli
# Experimental: as §1, §2
# Klebsiella pneumoniae = test system: Klebsiella pneumoniae
# Experimental: as §1, §2
# [1] = test system: Pseudomonas aeruginosa (301), MDR-PSA isolate
# Experimental: as §1, §2
# V33 = test: MIC, broth microdilution (CLSI 2012), isolate V33; conditions: Batch 1; MH broth, 16-20 hours
# [2] = test system: Staphylococcus aureus (Gram positive); test: Antimicrobial activity (MIC) against Gram positive species; conditions: summary in words
# Experimental: as §1, §2
# [3] = test system: Gram negative species tested (Pseudomonas aeruginosa, Klebsiella pneumonia, Escherichia coli and Acinetobacter baumannii); test: Antimicrobial activity (MIC) against Gram negative species; conditions: summary in words
# Experimental: as §1, §2
smiles,measurement,setting,value
"CC[C@H](C)[C@H](N)C1=N[C@H](C(=O)N[C@@H](CC(C)C)C(=O)N[C@H](CCC(=O)O)C(=O)N[C@H](C(=O)N[C@H]2CCCCNC(=O)[C@H](CC(N)=O)NC(=O)[C@@H](CC(=O)O)NC(=O)[C@H](Cc3cnc[nH]3)NC(=O)[C@@H](Cc3ccccc3)NC(=O)[C@H]([C@@H](C)CC)NC(=O)[C@@H](CCCN)NC2=O)[C@@H](C)CC)CS1 [Bacitracin, bacitracin] ({Ileψ(thiazoline)Cys}-L[dE]IK[dOrn]I[dF]H[dD]N; lactam 4-C)",MIC V19,Acinetobacter baumannii,640 µg/mL
same,MIC V19,"Acinetobacter baumannii; Batch 1, MH broth, 16-20 hours",>128 µg/mL
same,MIC V5,Escherichia coli,640 µg/mL
same,MIC V5,"Escherichia coli; Batch 1, MH broth, 16-20 hours",>128 µg/mL
same,MIC V3,Klebsiella pneumoniae,>8192 µg/mL
same,MIC V3,"Klebsiella pneumoniae; Batch 1, MH broth, 16-20 hours",>128 µg/mL
same,MIC V2,"[1]; 301), MDR-PSA isolate",>8192 µg/mL
same,MIC V2,"[1]; Batch 1, MH broth, 16-20 hours",>128 µg/mL
same,MIC V33,V33,>128 µg/mL
same,antimicrobial activity against Staphylococcus aureus (Gram positive),[2],high antimicrobial activity
same,antimicrobial activity against the Gram negative species tested,[3],but not the Gram negative species tested
